Test results: article PMC6409085, “Three odorant-binding proteins are involved in the behavioral response of Sogatella furcifera to rice plant volatiles” (PeerJ, 2019)
Values joined by “and” are separate entries in the source; they are usually repeats but may differ in a detail not shown here. Identical values can stand only once.

Assays:
Experiment in all cases: biochemical
Assay type in all cases: binding
SfurOBP1 = SfurOBP1 (Sogatella furcifera, UniProt V5T8N5); settings: OBP1, three replicate columns
SfurOBP1, sequence (V5T8N5 entry or part of it): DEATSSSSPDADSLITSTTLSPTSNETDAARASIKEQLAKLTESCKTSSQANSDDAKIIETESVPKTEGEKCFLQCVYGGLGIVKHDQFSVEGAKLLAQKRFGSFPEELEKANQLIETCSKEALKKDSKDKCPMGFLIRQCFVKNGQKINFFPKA
Procedure: (§1) Thirty-six rice odorants ([He et al., 2014]; [Wang et al., 2017]) and 1-N-phenyl-naphthylamine (1-NPN) were purchased from Sigma-Aldrich (St Louis, MO, USA). These odorants and 1-NPN were dissolved in high-performance liquid chromatography (HPLC) purify grade methanol for 1.0 mM as work solution.
(§2) Fluorescence competitive binding assays were performed on Tecan Spark 10M (Tecan Group Ltd., Männedorf, Switzerland) with the F96 Black ELIAS Plate (Sangon) ([Khuhro et al., 2017]; [Liu et al., 2017]). The solutions were excited at 337 nm and emission spectra were recorded between 390 and 490 nm. First, to test the binding constants of 1-NPN to the SfurOBPs, a 2.0 µM solution of protein in 50 mM Tris-HCl (pH = 7.4) was titrated with 1 mM 1-NPN to achieve virous concentrations. Next, the competitive binding of each odorant was measured using the 1-NPN as fluorescent reporter and odorant as competitor. The concentrations of protein and 1-NPN were both 2.0 µM, the odorant added after protein and 1-NPN added into the well of ELIAS Plate for 2 min. The final concentrations of each competitor were 2, 4, 6, 8, 10, 12, 14, 16, 18 and 20 µM. After 2 min of odorant added, the fluorescence intensity was measured and recorded. The volume of mixed solution in each well was maintained at 250 µL. Each interaction was performed in triplicates.
(§3) GraphPad Prism 7.0 software (GraphPad Software, Inc., La Jolla, CA, USA) was used to calculated and generated the binding constants (K1−NPN) of 1-NPN to SfurOBPs and relative Scatchard plots ([Ban et al., 2003]; [Li et al., 2016]). Dissociation constant (Ki) of each odorant to SfurOBP was computed from the corresponding IC50 value (the half maximal inhibitory concentration), using the following equation: Ki=[IC50]/(1 + [1-NPN]/K1−NPN), where [1-NPN] is the free concentration of 1-NPN and K1−NPN is the dissociation constant of the complex protein/1-NPN.

SfurOBP11 = SfurOBP11 (Sogatella furcifera, UniProt V5T6E3)
SfurOBP11, sequence (V5T6E3 entry or part of it): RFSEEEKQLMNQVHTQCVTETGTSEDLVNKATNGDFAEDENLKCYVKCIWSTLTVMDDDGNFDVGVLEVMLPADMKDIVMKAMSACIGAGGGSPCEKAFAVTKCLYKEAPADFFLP
Procedure: as §1, §2, §3

SfurOBP3 = SfurOBP3 (Sogatella furcifera, UniProt V5T818); settings: OBP3, three replicate columns
SfurOBP3, sequence (V5T818 entry or part of it): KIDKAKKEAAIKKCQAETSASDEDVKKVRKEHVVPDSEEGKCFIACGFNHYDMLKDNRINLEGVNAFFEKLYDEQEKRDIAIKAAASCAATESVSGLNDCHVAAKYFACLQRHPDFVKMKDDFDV
Procedure: as §1, §2, §3

SfurOBP2 = SfurOBP2 (Sogatella furcifera, UniProt V5T759)
SfurOBP2, sequence (V5T759 entry or part of it): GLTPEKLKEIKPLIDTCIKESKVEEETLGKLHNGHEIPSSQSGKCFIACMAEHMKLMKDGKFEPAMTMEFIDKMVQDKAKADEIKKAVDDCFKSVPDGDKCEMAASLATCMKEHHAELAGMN
Procedure: as §1, §2, §3

- Fluorescence competitive binding assay, fluorescence intensity (SfurOBP1; ligand concentration 2 (μM)): 12147 and 12451 and 12785
- Fluorescence competitive binding assay, fluorescence intensity (SfurOBP1; ligand concentration 4 (μM)): 16267 and 16004 and 15123
- Fluorescence competitive binding assay, fluorescence intensity (SfurOBP1; ligand concentration 6 (μM)): 22521 and 20565 and 17849
- Fluorescence competitive binding assay, fluorescence intensity (SfurOBP1; ligand concentration 8 (μM)): 45300 and 22408 and 22243
- Fluorescence competitive binding assay, fluorescence intensity (SfurOBP1; ligand concentration 10 (μM)): 28286 and 29968 and 28368
- Fluorescence competitive binding assay, fluorescence intensity (SfurOBP1; ligand concentration 12 (μM)): 32121 and 35150 and 30012
- Fluorescence competitive binding assay, fluorescence intensity (SfurOBP1; ligand concentration 14 (μM)): 38613 and 36070 and 36799
- Fluorescence competitive binding assay, fluorescence intensity (SfurOBP1; ligand concentration 16 (μM)): 34740 and 38687 and 36378
- Fluorescence competitive binding assay, fluorescence intensity (SfurOBP1; ligand concentration 18 (μM)): 40518 and 49298 and 40325
- Fluorescence competitive binding assay, fluorescence intensity (SfurOBP1; ligand concentration 20 (μM)): 47871 and 41141 and 44944
- Fluorescence intensity, fluorescence competitive binding assay, OBP11 (SfurOBP11; ligand concentration 2, replicate 1): 29421
- Fluorescence intensity, fluorescence competitive binding assay, OBP11 (SfurOBP11; ligand concentration 2, replicate 2): 25881
- Fluorescence intensity, fluorescence competitive binding assay, OBP11 (SfurOBP11; ligand concentration 2, replicate 3): 28224
- Fluorescence intensity, fluorescence competitive binding assay, OBP11 (SfurOBP11; ligand concentration 4, replicate 1): 30123
- Fluorescence intensity, fluorescence competitive binding assay, OBP11 (SfurOBP11; ligand concentration 4, replicate 2): 33254
- Fluorescence intensity, fluorescence competitive binding assay, OBP11 (SfurOBP11; ligand concentration 4, replicate 3): 33112
- Fluorescence intensity, fluorescence competitive binding assay, OBP11 (SfurOBP11; ligand concentration 6, replicate 1): 36335
- Fluorescence intensity, fluorescence competitive binding assay, OBP11 (SfurOBP11; ligand concentration 6, replicate 2): 36906
- Fluorescence intensity, fluorescence competitive binding assay, OBP11 (SfurOBP11; ligand concentration 6, replicate 3): 37537
- Fluorescence intensity, fluorescence competitive binding assay, OBP11 (SfurOBP11; ligand concentration 8, replicate 1): 38631
- Fluorescence intensity, fluorescence competitive binding assay, OBP11 (SfurOBP11; ligand concentration 8, replicate 2): 37383
- Fluorescence intensity, fluorescence competitive binding assay, OBP11 (SfurOBP11; ligand concentration 8, replicate 3): 37911
- Fluorescence intensity, fluorescence competitive binding assay, OBP11 (SfurOBP11; ligand concentration 10, replicate 1): 41192
- Fluorescence intensity, fluorescence competitive binding assay, OBP11 (SfurOBP11; ligand concentration 10, replicate 2): 43341
- Fluorescence intensity, fluorescence competitive binding assay, OBP11 (SfurOBP11; ligand concentration 10, replicate 3): 42267
- Fluorescence intensity, fluorescence competitive binding assay, OBP11 (SfurOBP11; ligand concentration 12, replicate 1): 42172
- Fluorescence intensity, fluorescence competitive binding assay, OBP11 (SfurOBP11; ligand concentration 12, replicate 2): 43002
- Fluorescence intensity, fluorescence competitive binding assay, OBP11 (SfurOBP11; ligand concentration 12, replicate 3): 44132
- Fluorescence intensity, fluorescence competitive binding assay, OBP11 (SfurOBP11; ligand concentration 14, replicate 1): 50939
- Fluorescence intensity, fluorescence competitive binding assay, OBP11 (SfurOBP11; ligand concentration 14, replicate 2): 48639
- Fluorescence intensity, fluorescence competitive binding assay, OBP11 (SfurOBP11; ligand concentration 14, replicate 3): 49789
- Fluorescence intensity, fluorescence competitive binding assay, OBP11 (SfurOBP11; ligand concentration 16, replicate 1): 53380
- Fluorescence intensity, fluorescence competitive binding assay, OBP11 (SfurOBP11; ligand concentration 16, replicate 2): 53280
- Fluorescence intensity, fluorescence competitive binding assay, OBP11 (SfurOBP11; ligand concentration 16, replicate 3): 53495
- Fluorescence intensity, fluorescence competitive binding assay, OBP11 (SfurOBP11; ligand concentration 18, replicate 1): 69760
- Fluorescence intensity, fluorescence competitive binding assay, OBP11 (SfurOBP11; ligand concentration 18, replicate 2): 71076
- Fluorescence intensity, fluorescence competitive binding assay, OBP11 (SfurOBP11; ligand concentration 18, replicate 3): 64769
- Fluorescence intensity, fluorescence competitive binding assay, OBP11 (SfurOBP11; ligand concentration 20, replicate 1): 67623
- Fluorescence intensity, fluorescence competitive binding assay, OBP11 (SfurOBP11; ligand concentration 20, replicate 2): 62432
- Fluorescence intensity, fluorescence competitive binding assay, OBP11 (SfurOBP11; ligand concentration 20, replicate 3): 62669
- Fluorescence competitive binding assay, fluorescence intensity (SfurOBP3; ligand concentration 2): 79169 and 74941 and 94761
- Fluorescence competitive binding assay, fluorescence intensity (SfurOBP3; ligand concentration 4): 75066 and 75962 and 116353
- Fluorescence competitive binding assay, fluorescence intensity (SfurOBP3; ligand concentration 6): 80726 and 113361 and 131059
- Fluorescence competitive binding assay, fluorescence intensity (SfurOBP3; ligand concentration 8): 127533 and 115294 and 124955
- Fluorescence competitive binding assay, fluorescence intensity (SfurOBP3; ligand concentration 10): 151439 and 140422 and 180514
- Fluorescence competitive binding assay, fluorescence intensity (SfurOBP3; ligand concentration 12): 128094 and 97542 and 122147
- Fluorescence competitive binding assay, fluorescence intensity (SfurOBP3; ligand concentration 14): 143468 and 130975 and 143763
- Fluorescence competitive binding assay, fluorescence intensity (SfurOBP3; ligand concentration 16): 147668 and 180253 and 155136
- Fluorescence competitive binding assay, fluorescence intensity (SfurOBP3; ligand concentration 18): 151347 and 96227 and 180613
- Fluorescence competitive binding assay, fluorescence intensity (SfurOBP3; ligand concentration 20): 179130 and 144685 and 179646
- Fluorescence competitive binding assay, OBP2 (raw fluorescence reading) (SfurOBP2; ligand concentration 2 (unit not given), replicate column 1 of 3): 36028
- Fluorescence competitive binding assay, OBP2 (raw fluorescence reading) (SfurOBP2; ligand concentration 2 (unit not given), replicate column 2 of 3): 29538
- Fluorescence competitive binding assay, OBP2 (raw fluorescence reading) (SfurOBP2; ligand concentration 2 (unit not given), replicate column 3 of 3): 32173
- Fluorescence competitive binding assay, OBP2 (raw fluorescence reading) (SfurOBP2; ligand concentration 4 (unit not given), replicate column 1 of 3): 32085
- Fluorescence competitive binding assay, OBP2 (raw fluorescence reading) (SfurOBP2; ligand concentration 4 (unit not given), replicate column 2 of 3): 39967
- Fluorescence competitive binding assay, OBP2 (raw fluorescence reading) (SfurOBP2; ligand concentration 4 (unit not given), replicate column 3 of 3): 36772
- Fluorescence competitive binding assay, OBP2 (raw fluorescence reading) (SfurOBP2; ligand concentration 6 (unit not given), replicate column 1 of 3): 51385
- Fluorescence competitive binding assay, OBP2 (raw fluorescence reading) (SfurOBP2; ligand concentration 6 (unit not given), replicate column 2 of 3): 38065
- Fluorescence competitive binding assay, OBP2 (raw fluorescence reading) (SfurOBP2; ligand concentration 6 (unit not given), replicate column 3 of 3): 41844
- Fluorescence competitive binding assay, OBP2 (raw fluorescence reading) (SfurOBP2; ligand concentration 8 (unit not given), replicate column 1 of 3): 39886
- Fluorescence competitive binding assay, OBP2 (raw fluorescence reading) (SfurOBP2; ligand concentration 8 (unit not given), replicate column 2 of 3): 44063
- Fluorescence competitive binding assay, OBP2 (raw fluorescence reading) (SfurOBP2; ligand concentration 8 (unit not given), replicate column 3 of 3): 42977
- Fluorescence competitive binding assay, OBP2 (raw fluorescence reading) (SfurOBP2; ligand concentration 10 (unit not given), replicate column 1 of 3): 53038
- Fluorescence competitive binding assay, OBP2 (raw fluorescence reading) (SfurOBP2; ligand concentration 10 (unit not given), replicate column 2 of 3): 51904
- Fluorescence competitive binding assay, OBP2 (raw fluorescence reading) (SfurOBP2; ligand concentration 10 (unit not given), replicate column 3 of 3): 31312
- Fluorescence competitive binding assay, OBP2 (raw fluorescence reading) (SfurOBP2; ligand concentration 12 (unit not given), replicate column 1 of 3): 66556
- Fluorescence competitive binding assay, OBP2 (raw fluorescence reading) (SfurOBP2; ligand concentration 12 (unit not given), replicate column 2 of 3): 51896
- Fluorescence competitive binding assay, OBP2 (raw fluorescence reading) (SfurOBP2; ligand concentration 12 (unit not given), replicate column 3 of 3): 78968
- Fluorescence competitive binding assay, OBP2 (raw fluorescence reading) (SfurOBP2; ligand concentration 14 (unit not given), replicate column 1 of 3): 59847
- Fluorescence competitive binding assay, OBP2 (raw fluorescence reading) (SfurOBP2; ligand concentration 14 (unit not given), replicate column 2 of 3): 56230
- Fluorescence competitive binding assay, OBP2 (raw fluorescence reading) (SfurOBP2; ligand concentration 14 (unit not given), replicate column 3 of 3): 65733
- Fluorescence competitive binding assay, OBP2 (raw fluorescence reading) (SfurOBP2; ligand concentration 16 (unit not given), replicate column 1 of 3): 57526
- Fluorescence competitive binding assay, OBP2 (raw fluorescence reading) (SfurOBP2; ligand concentration 16 (unit not given), replicate column 2 of 3): 53371
- Fluorescence competitive binding assay, OBP2 (raw fluorescence reading) (SfurOBP2; ligand concentration 16 (unit not given), replicate column 3 of 3): 59678
- Fluorescence competitive binding assay, OBP2 (raw fluorescence reading) (SfurOBP2; ligand concentration 18 (unit not given), replicate column 1 of 3): 69952
- Fluorescence competitive binding assay, OBP2 (raw fluorescence reading) (SfurOBP2; ligand concentration 18 (unit not given), replicate column 2 of 3): 81927
- Fluorescence competitive binding assay, OBP2 (raw fluorescence reading) (SfurOBP2; ligand concentration 18 (unit not given), replicate column 3 of 3): 73816
- Fluorescence competitive binding assay, OBP2 (raw fluorescence reading) (SfurOBP2; ligand concentration 20 (unit not given), replicate column 1 of 3): 72726
- Fluorescence competitive binding assay, OBP2 (raw fluorescence reading) (SfurOBP2; ligand concentration 20 (unit not given), replicate column 2 of 3): 69859
- Fluorescence competitive binding assay, OBP2 (raw fluorescence reading) (SfurOBP2; ligand concentration 20 (unit not given), replicate column 3 of 3): 85793
SMILES: CCCCCCCCCCCCCCCC(=O)OC [MH(methyl hexadecanoate)]
